From US20210087620A1, “Target Gene Identifying Method for Tumor Treatment” (Samsung Life Public Welfare Foundation Samsung Life Public …, priority 2017, published 2021)

Legend:
[1] = test system: left tumor-derived cells of the GBM9 patient; test: PDC-based chemical screening (ATP cell viability, dose-response AUC), left tumor; set-up: species or system human; conditions: GBM9 left tumor PDCs
Procedure: (§1) According to one embodiment, the measuring of drug sensitivity of each sample by subjecting the multiple samples to drug screening may include obtaining a cell viability curve of each sample according to a dose of each drug; and calculating an area under the curve.
(§2) GBM9 patient had tumors in the right and left frontal lobes of the brain, respectively. In this regard, 40 kinds of anticancer agents were administered to samples collected from the respective tumors, and tumor cell viability was examined.
(§3) When a curve of tumor cell viability vs drug dose is plotted, an area under the curve (AUC) may be used as an index of drug sensitivity. […]
(§4) PDCs grown in serum-free medium were seeded in 384 well plates at a density of 500 cells per well in duplicate or triplicate. […] After 6 days of incubation at 37° C. in a 5% CO2 humidified incubator, cell viability was analyzed using an adenosine triphosphate (ATP) monitoring system based on firefly luciferase (ATPLite™ 1step, PerkinElmer). At this time, viable cells were estimated using an EnVision Multilabel Reader (PerkinElmer). […] DRC fitting was performed using GraphPad Prism 5 (GraphPad) and evaluated by measuring an area under the curve (AUC) of dose response curve. After normalization, best-fit lines were determined and the AUC value of each curve was calculated using a GraphPad Prism. […]

[2] = test system: right tumor-derived cells of the GBM9 patient; test: PDC-based chemical screening (ATP cell viability, dose-response AUC), right tumor; set-up: species or system human; conditions: GBM9 right tumor PDCs
Procedure: as §1, §2, §3, §4

[3] = 6 days, 20 μM to 4.88 nM, FIG. 6

## Nc1cc(C(F)(F)F)c(-c2cc(N3CCOCC3)nc(N3CCOCC3)n2)cn1 [BKM120, Buparlisib]
[1]; [3]
  survival rate of tumor cells with increasing drug dose: survival rates of the two tumors decreased
[1]; FIG. 6, FIG. 7
  area under the curve (AUC) of cell viability vs dose (low AUC = high drug sensitivity): relatively low
[2]; [3]
  survival rate of tumor cells with increasing drug dose: survival rates of the two tumors decreased
[2]; FIG. 6, FIG. 7
  area under the curve (AUC) of cell viability vs dose (low AUC = high drug sensitivity): relatively low
